Measurements from patent publication US12642788B2, “Pharmaceutical composition comprising benzimidazole derivative compound” (HK INNO.N CORPORATION, priority 2020, dated 2026).

Experiments:
Assay type in all cases: in vivo, C57BL/6 male mice
[1] = system: IL-1β; experiment: IL-1β production/expression in colonic tissues, DSS model
Protocol: (§1) In the mouse model of colitis using DSS, the level of mRNA expression of IL-1p, IL-6, Muc 2 and TNF-α was evaluated by using a real-time PCR. (In FIG. 5, * indicates P<0.05, ** indicates P<0.01, and *** indicates P<0.001.)

[2] = system: IL-6; experiment: IL-6 mRNA expression in colonic tissues, DNBS model; details: compared to the group with induced colitis
[3] = system: KCNJ1 mRNA; experiment: KCNJ1 mRNA expression in colonic tissues, real-time PCR, DSS model; details: 30 mg/kg/day oral
Protocol: In the mouse model of colitis using DSS, the difference in expression of KCNJ1 mRNA was measured by using a real-time PCR. (In FIG. 4, ** indicates P<0.01.)

[4] = system: Muc2; experiment: Muc2 mRNA expression in colonic tissues, real-time PCR, DSS model
Protocol: as §1

[5] = system: IL-6; experiment: IL-6 mRNA expression in colonic tissues, real-time PCR, DSS model; details: compared to the group with induced colitis
Protocol: as §1

[6] = system: TNF-α; experiment: TNF-α mRNA expression in colonic tissues, real-time PCR, DSS model; details: compared to the group with induced colitis
Protocol: as §1

[7] = system: colitis induced by 2,4-dinitrobenzenesulfonic acid hydrate (DNBS); experiment: Mouse model of colitis using DNBS (body weight, length of large intestine, DAI, survival rate); details: for body weight: day 0 = 100%; for survival rate: as of day 5
Protocol: Mouse Model of Colitis Using DNBS
C57BL/6 male mice, which were eight weeks old (24.0 g), were purchased from Orient Bio, acclimated to the laboratory environment (temperature of 21±2° C. and humidity of 50±10%) for one week with a full access to feed and water, and used in an experiment.
The mice were divided into a normal control group (Control, n=6), a group with induced colitis (DNBS+Vehicle, n=8), a group dosed with tegoprazan (DNBS+Tegoprazan, n=8), and a group dosed with a control drug (DNBS+Rabeprazole, n=8), and the experiment was performed.
To induce colitis, DNBS (Sigma-Aldrich product, catalog No. 556971) was used. The mice were fasted from one day before being dosed with DNBS to remove the fecal waste in the intestine. The normal control group was dosed with 50% ethanol only by rectal route.
The administration of DNBS was done by dissolving 5 mg of DNBS in 50% ethanol and administering it by rectal route.
In the group dosed with tegoprazan (DNBS+Tegoprazan), the DNBS-administered mouse was orally dosed with tegoprazan (7-{[(4S)-5,7-Difluoro-3,4-dihydro-2H-chromen-4-yl]oxy}-N,N,2-trimethyl-1H-benzi midazole-5-carboxamide), which had been dissolved in 0.5% (w/v) methylcellulose aqueous solution, at a dose of 30 mg/kg/day twice a day for five days.
In the group dosed with the control drug (DNBS+Rabeprazole), the DNBS-administered mouse was dosed with rabeprazole in substantially the same manner as the group dosed with tegoprazan, except for using rabeprazole instead of tegoprazan.
In the group with induced colitis (DNBS+Vehicle), the DNBS-administered mouse was orally dosed with 0.5% (w/v) methylcellulose aqueous solution twice a day.
In the group dosed with tegoprazan, the group dosed with the control drug, and the group with induced colitis, the oral administration was performed twice a day by dividing the administration into morning/afternoon. After being dosed for four days, the mouse was sacrificed on the 5th day.
The body weight of each mouse in the normal control group, the group with induced colitis, the group dosed with tegoprazan, and the group dosed with the control drug was measured. The body weight of the mouse was measured every morning from the start day of experiment before administration of DNBS (day 0) to the 5th day, and the body weight of the mouse before administration of DNBS on day 0 was converted into 100%. In the case of the mouse sacrificed before the end of experiment, the weight of the mouse measured the day before sacrifice was included in the data as of the last day of experiment and converted (refer to FIG. 15 for survival period and survival rate).
On the 5th day after an initial administration of DNBS, the mouse was sacrificed, and the colon was removed therefrom to measure the length of the removed large intestine. (In FIG. 10, * indicates P<0.05.)
As DAI, a change in body weight, bloody stool and stool viscosity were measured every morning, and scored according to the following table 1.
(In relation to the animal model of colitis using DNBS, in the case of the mouse sacrificed before the end of experiment, the DAI score of the mouse measured the day before sacrifice was included in the data as of the last day of experiment and converted (refer to FIG. 15 for survival period and survival rate).)

[8] = system: colonic tissues; experiment: PAS staining analysis and damage to colonic tissues, DNBS model
Protocol: (§2) PAS staining analysis was performed on colonic tissues obtained from each of the animal models in which DSS and DNBS had been used, the goblet cell loss was scored according to the following table 2, and the degree of tissue damage was scored according to the following table 3. [table] [table]

[9] = system: tight junction (intestinal permeability); experiment: FITC-dextran permeability, DSS model; details: FITC value in serum 4 hours after oral FITC-dextran
Protocol: Four hours before the mouse was sacrificed in the mouse model of colitis using DSS, the mouse was orally dosed with FITC-dextran (80 mg/mL), after which cardiac puncture was performed to measure an FITC value in serum. Permeability (%) was converted based on the normal control group.

[10] = system: TNF-α; experiment: TNF-α mRNA expression in colonic tissues, DNBS model; details: compared to the group with induced colitis
[11] = system: colitis induced by dextran sodium sulfate (DSS); experiment: Mouse model of colitis using DSS (body weight, length of large intestine, DAI); details: 30 mg/kg/day oral twice a day; for decrease in body weight: vs day 0 = 100%
Protocol: Mouse Model of Colitis Using DSS C57BL/6 male mice, which were eight weeks old (24.0 g), were purchased from Orient Bio, acclimated to the laboratory environment (temperature of 21±2° C. and humidity of 50±10%) for one week with a full access to feed and water, and used in an experiment. The mice were divided into a normal control group (Control, n=6), a group with induced colitis (DSS+Veh, n=8), a group dosed with tegoprazan (DSS+Tegoprazan, n=8), and a group dosed with a control drug (DSS+Rabeprazole, n=8), and the experiment was performed. To induce colitis, DSS (MPbio product, catalog No. 0216011080) was used. The group with induced colitis (DSS+Veh) was dosed with 2.0% DSS in drinking water for consecutive five days, was suspended from 2.0% DSS administration from the 5th day, and was orally dosed with 0.5% (w/v) methylcellulose aqueous solution twice a day for three days until the 8th day. The group dosed with tegoprazan (DSS+Tegoprazan) was orally dosed with tegoprazan (7-{[(4S)-5,7-difluoro-3,4-dihydro-2H-chromen-4-yl]oxy}-N,N,2-trimethyl-1H-benzi midazole-5-carboxamide), which was dissolved in 0.5% (w/v) methylcellulose aqueous solution, at a dose of 30 mg/kg/day twice a day for five days along with 2% DSS and drinking water. The group was suspended from 2.0% DSS administration from the 5th day, and was orally dosed with tegoprazan, which was dissolved in 0.5% (w/v) methylcellulose aqueous solution, twice a day for three days until the 8th day. The group dosed with the control drug (DSS+Rabeprazole) was dosed with DSS and rabeprazole in substantially the same manner as the group dosed with tegoprazan, except for using rabeprazole instead of tegoprazan. In the group dosed with tegoprazan and the group dosed with the control drug, the oral administration was performed twice a day by dividing the administration into morning/afternoon. The body weight of each mouse was measured with regard to the normal control group, the group with induced colitis, the group dosed with tegoprazan, and the group dosed with the control drug. The body weight of the mouse was measured every morning from the start day of experiment (day 0), in which DSS was not administered, until the 9th day, and the body weight of the mouse, which was measured on the start day of experiment (day 0) without the administration of DSS, was converted into 100%. On the 9th day after an initial administration of 2% DSS solution, the mouse was sacrificed and the colon was removed therefrom to measure the length of the removed large intestine. (In FIG. 2, * indicates P<0.05 and ** indicates P<0.01.) As DAI, a change in body weight, bloody stool and stool viscosity were measured every morning, and scored according to the following table 1.

[12] = system: IL-17; experiment: IL-17 mRNA expression in colonic tissues, real-time PCR, DNBS model; details: compared to the group with induced colitis
Protocol: In the mouse model of colitis using DNBS, the level of mRNA expression of IL-17 was evaluated by using a real-time PCR. (In FIG. 12, ** indicates P<0.01 and *** indicates P<0.001.)

[13] = system: colonic tissues; experiment: PAS staining analysis and damage to colonic tissues, DSS model; details: for scored degree of damage to colonic tissues: score per Table 3
Protocol: as §2

[14] = 5th day, 30 mg/kg/day oral twice a day

## Cc1nc2cc(C(=O)N(C)C)cc(O[C@H]3CCOc4cc(F)cc(F)c43)c2[nH]1 [tegoprazan, (S)-4-(5,7-difluorochroman-4-yloxy)-N,N,2-trimethyl-1H-benzo[d]imidazole-6-carbox amide]
[1]
  production/expression of IL-1β: inhibits the production/expression
[2]
  mRNA expression of IL-6: tended to decrease
[3]
  expression of KCNJ1 mRNA: significant decrease in expression of KCNJ1 mRNA
[4]
  mRNA expression of Muc2: statistically significant increase
[5]
  mRNA expression of IL-6: statistically significant decrease
[6]
  mRNA expression of TNF-α: statistically significant decrease
[7]; [14]
  length of the large intestine: no difference in the length of the large intestine from the normal control group
  body weight: about 105%
[7]
  survival rate: all the subjects in the group dosed with tegoprazan survived until the last day of experiment
[7]; to 5th day, 30 mg/kg/day oral twice a day
  disease activity index (DAI) score: DAI drastically decreased from the 4th day
[8]; colonic tissues
  crypt damage (PAS staining): partially intact crypt was observed
  goblet cells (PAS staining): presence of mucin-producing goblet cells was confirmed
[9]
  damage to the tight junction (FITC-dextran permeability): significant decrease in the damage to the tight junction
[10]
  mRNA expression of TNF-α: tended to decrease
[11]; 9th day
  length of the large intestine: a rather increase in the length of the large intestine or no difference from the normal control group
  decrease in body weight: about 14%
[11]; to 9th day
  disease activity index (DAI) score: took a turn for the better compared to the group with induced colitis
[12]
  mRNA expression of IL-17: significant decrease
[13]; colonic tissues
  crypt damage (PAS staining): partially intact crypt was observed
  goblet cells (PAS staining): goblet cells were also present compared to the group with induced colitis
[13]
  scored degree of damage to colonic tissues: 5.38±1.8 point

## COCCCOc1ccnc(C[S+]([O-])c2nc3ccccc3[nH]2)c1C (centres unmarked) [control drug, rabeprazole, reference compound]
[7]; [14]
  body weight: 89%
[7]
  survival rate: 75%
[8]; score per Table 3
  scored degree of damage to colonic tissues: 7.0±1.4 point
[11]; 9th day
  decrease in body weight: about 23%
[13]
  scored degree of damage to colonic tissues: 8.12±1.8 point
